Reference: patent publication US20250051327A1, “MALT-1 MODULATORS” (EXSCIENTIA AI LIMITED, priority 2020, published 2025)
Counter-ions that a name gives are not always drawn.

Assays:
[1] = test system: IL-2 secretion by human effector memory T cells (TEM); test: Effector memory T cells IL-2 release assay; type: cell-based; details: T-cell; human CD4+ effector memory T cells, CD3/CD28 bead stimulation, 24 h; read-out: CD4TC IL2 IC50
Procedure, shortened: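 Human CD4+ effector memory T cells from healthy-donor buffy coats were stimulated with anti-CD3/CD28 Dynabeads and exposed to 10 semi-log compound doses (0.1% DMSO) for 24 h at 37 °C. Supernatant IL-2 was measured by HTRF, and IC50 came from a 4-parameter logistic fit to maximal IL-2. Viability was checked by flow cytometry.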

[2] = molecular target: Recombinant human MALT-1 (amino acids 340-824) (Homo sapiens (Human), UniProt Q9UDY8); test: MALT-1 inhibition assay (fluorogenic substrate Ac-LRSR-Rh110-DP); type: biochemical; details: recombinant human MALT-1, substrate Ac-LRSR-Rh110-DP
Procedure, shortened: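 Reactions were started with fluorogenic substrate Ac-LRSR-Rh110-DP (10 μM final) against 3 nM enzyme and kept dark at 25° C for 60 minutes. IC50 values came from 4-parameter logistic fits of percent inhibition calculated from relative fluorescence units.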

Sequence of Recombinant human MALT-1 (amino acids 340-824) (Q9UDY8 340-824): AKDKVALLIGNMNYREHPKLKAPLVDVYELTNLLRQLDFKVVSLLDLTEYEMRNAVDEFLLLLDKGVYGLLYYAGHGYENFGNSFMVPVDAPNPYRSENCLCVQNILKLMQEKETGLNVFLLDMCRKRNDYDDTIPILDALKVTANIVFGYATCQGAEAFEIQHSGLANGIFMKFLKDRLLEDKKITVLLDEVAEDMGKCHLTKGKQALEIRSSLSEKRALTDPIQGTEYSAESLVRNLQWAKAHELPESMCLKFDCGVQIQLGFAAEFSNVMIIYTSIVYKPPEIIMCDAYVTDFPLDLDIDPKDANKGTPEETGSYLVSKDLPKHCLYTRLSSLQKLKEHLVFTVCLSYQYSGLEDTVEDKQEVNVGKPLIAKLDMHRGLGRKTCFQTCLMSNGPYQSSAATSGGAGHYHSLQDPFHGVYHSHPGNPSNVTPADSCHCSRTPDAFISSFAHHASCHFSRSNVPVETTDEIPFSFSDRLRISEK

Row | Structure (SMILES) | IC50 [1] | IC50 [2]
1 | CN(C(=O)[C@H]1CNC(=O)O1)[C@@H](c1ccc(N2CCCc3c2cnc2cc(Cl)nn32)cc1)C(F)(F)F (single isomer, unassigned) [CPD0075576] | 57 nM | 46 nM
2 | CN(C(=O)[C@H]1C[C@@H](C(=O)O)C1)[C@@H](c1ccc(N2CCCc3c2cnc2cc(Cl)nn32)cc1)C(F)(F)F [CPD0072934, (cis)-3-{[(1S)-1-(4-{4-chloro-2,3,7,10-tetraazatricyclo[7.4.0.0^2,6]trideca-1(9),3,5,7-tetraen-10-yl}phenyl)-2,2,2-trifluoroethyl](methyl)carbamoyl}cyclobutane-1-carboxylic acid] | 422 nM | 72 nM
3 | CN(C(=O)C1CCS(=O)(=O)CC1)[C@@H](c1ccc(N2CCCc3c2cnc2cc(Cl)nn32)cn1)C(F)(F)F [CPD0073056, N-[(1S)-1-[5-(4-chloro-2,3,7,10-tetrazatricyclo[7.4.0.0^2,6]trideca-1(9),3,5,7-tetraen-10-yl)-2-pyridyl]-2,2,2-trifluoro-ethyl]-N-methyl-1,1-dioxo-thiane-4-carboxamide] | 780 nM | 197 nM
4 | CN(C(=O)[C@H]1CCS(=O)(=O)C1)[C@@H](c1ccc(N2CCCc3c2cnc2cc(Cl)nn32)cc1)C(F)(F)F (relative stereo) [CPD0022134, (3rel-R)-N-[(1S)-1-(4-{4-chloro-2,3,7,10-tetraazatricyclo[7.4.0.0^2,6]trideca-1(9),3,5,7-tetraen-10-yl}phenyl)-2,2,2-trifluoroethyl]-N-methyl-1,1-dioxo-1λ^6-thiolane-3-carboxamide] | 175 nM | 134 nM
5 | CN(C(=O)C12CN(C1)S(=O)(=O)C2)[C@@H](c1ccc(N2CCCc3c2cnc2cc(Cl)nn32)cc1)C(F)(F)F [CPD0073087, N-[(1S)-1-(4-{4-chloro-2,3,7,10-tetraazatricyclo[7.4.0.0^2,6]trideca-1(9),3,5,7-tetraen-10-yl}phenyl)-2,2,2-trifluoroethyl]-N-methyl-2,2-dioxo-2λ^6-thia-1-azabicyclo[2.1.1]hexane-4-carboxamide] | 103 nM | 78 nM
6 | CN(C(=O)C1CCS(=O)(=O)CC1)[C@@H](c1ccc(N2CCCc3c2cnc2c(Cl)cnn32)cc1)C(F)(F)F [CPD0021751, N-[(1S)-1-(4-{5-chloro-2,3,7,10-tetraazatricyclo[7.4.0.0^2,6]trideca-1(9),3,5,7-tetraen-10-yl}phenyl)-2,2,2-trifluoroethyl]-N-methyl-1,1-dioxo-1λ^6-thiane-4-carboxamide] | 3280 nM | 2120 nM
7 | CNCC(=O)N1CC[C@@H](C(=O)N(C)[C@@H](c2ccc(N3CCCc4c3cnc3cc(Cl)nn43)cc2)C(F)(F)F)C1 (relative stereo) [CPD0075881, (3 rel-S)—N-[(1S)-1-[4-(4-chloro-2,3,7,10-tetrazatricyclo[7.4.0.0^2,6]trideca-1(9),3,5,7-tetraen-10-yl)phenyl]-2,2,2-trifluoro-ethyl]-N-methyl-1-[2-(methylamino)acetyl]pyrrolidine-3-carboxamide hydrochloride] | 210 nM | 68 nM
8 | COc1ccc2ncc3c(c2n1)C(O)CCN3c1ccc([C@H](N(C)C(=O)C2CCS(=O)(=O)CC2)C(F)(F)F)cc1 (stereo partly drawn) [CPD0072449, N-methyl-1,1-dioxo-N-[(1S)-2,2,2-trifluoro-1-[4-(10-hydroxy-2-methoxy-9,10-dihydro-8H-pyrido[2,3-f][1,7]naphthyridin-7-yl)phenyl]ethyl]thiane-4-carboxamide] | 940 nM | 432 nM
9 | CN(C(=O)[C@H]1CCN(S(C)(=O)=O)C1)[C@@H](c1ccc(N2CCCc3c2cnc2cc(Cl)nn32)cc1)C(F)(F)F (relative stereo) [CPD0073143, (3rel-S)-N-[(1S)-1-(4-{4-chloro-2,3,7,10-tetraazatricyclo[7.4.0.0^2,6]trideca-1(9),3,5,7-tetraen-10-yl}phenyl)-2,2,2-trifluoroethyl]-1-methanesulfonyl-N-methylpyrrolidine-3-carboxamide] | 107 nM | 68 nM
10 | COc1ccc2ncc(Nc3ccc([C@H](N(C)C(=O)[C@H]4CC[S@@](=N)(=O)CC4)C(F)(F)F)cc3)c([C@@H](C)OC)c2n1 [CPD0075564] | 175 nM | 89 nM
11 | CN(C(=O)N1CCS(=O)(=O)CC1)[C@@H](c1ccc(N2CCCc3c2cnc2cc(Cl)nn32)cc1)C(F)(F)F [CPD0072804, N-[(1S)-1-(4-{4-chloro-2,3,7,10-tetraazatricyclo[7.4.0.0^2,6]trideca-1(9),3,5,7-tetraen-10-yl}phenyl)-2,2,2-trifluoroethyl]-N-methyl-1,1-dioxo-1λ^e-thiomorpholine-4-carboxamide] | 307 nM | 159 nM
12 | CN(C(=O)C1CCCS(=O)(=O)C1)[C@@H](c1ccc(N2CCCc3c2cnc2cc(Cl)nn32)cc1)C(F)(F)F (stereo partly drawn) [CPD0021571, N-[(1S)-1-(4-{4-chloro-2,3,7,10-tetraazatricyclo[7.4.0.0^2,6]trideca-1(9),3,5,7-tetraen-10-yl}phenyl)-2,2,2-trifluoroethyl]-N-methyl-1,1-dioxo-1λ^6-thiane-3-carboxamide] | 332 nM | 247 nM
13 | CN(C(=O)[C@H]1CC[S@@](=N)(=O)CC1)[C@@H](c1ccc(N2CCC(C)(C)c3c2cnc2cc(F)nn32)cc1)C(F)(F)F (relative stereo) [CPD0072782] | 95 nM | 53 nM
14 | COc1ccc2ncc(Nc3ccc([C@H](N(C)C(=O)C4CCS(=O)(=O)CC4)C(F)(F)F)cc3)cc2n1 [CPD0018619, N-methyl-1,1-dioxo-N-[(1S)-2,2,2-trifluoro-1-[4-[(6-methoxy-1,5-naphthyridin-3-yl)amino]phenyl]ethyl]thiane-4-carboxamide] | 190 nM | 361 nM
15 | CC(=O)N1CCC[C@H](C(=O)N(C)[C@@H](c2ccc(N3CCCc4c3cnc3cc(Cl)nn43)cc2)C(F)(F)F)C1 (relative stereo) [CPD0073500, (3rel-S)-1-acetyl-N-[(1S)-1-(4-{4-chloro-2,3,7,10-tetraazatricyclo[7.4.0.0^2,6]trideca-1(9),3,5,7-tetraen-10-yl}phenyl)-2,2,2-trifluoroethyl]-N-methylpiperidine-3-carboxamide] | 267 nM | 167 nM
16 | CN(C(=O)[C@H]1CCCS(=O)(=O)N1)[C@@H](c1ccc(N2CCCc3c2cnc2cc(Cl)nn32)cc1)C(F)(F)F (relative stereo) [CPD0073560, (3rel-R)-N-[(1S)-1-(4-{4-chloro-2,3,7,10-tetraazatricyclo[7.4.0.0^2,6]trideca-1(9),3,5,7-tetraen-10-yl}phenyl)-2,2,2-trifluoroethyl]-N-methyl-1,1-dioxo-1λ^6,2-thiazinane-3-carboxamide] | 157 nM | 92 nM
17 | CN(C(=O)[C@H]1CCN(C(=O)CO)C1)[C@@H](c1ccc(N2CCCc3c2cnc2cc(Cl)nn32)cc1)C(F)(F)F (relative stereo) [CPD0073977, (3rel-S)—N-[(1S)-1-(4-{4-chloro-2,3,7,10-tetraazatricyclo[7.4.0.0^2,6]trideca-1(9),3,5,7-tetraen-10-yl}phenyl)-2,2,2-trifluoroethyl]-1-(2-hydroxyacetyl)-N-methylpyrrolidine-3-carboxamide] | 115 nM | 39 nM
18 | CN(C(=O)C1CCS(=N)(=O)CC1)[C@@H](c1ccc(N2CC3(CC3)Cc3c2cnc2cc(Cl)nn32)cc1)C(F)(F)F (stereo partly drawn) [CPD0073761, N-[(1S)-1-[4-(4-chlorospiro[2,3,7,10-tetrazatricyclo[7.4.0.0^2,6]trideca-1(9),3,5,7-tetraene-12,1′-cyclopropane]-10-yl)phenyl]-2,2,2-trifluoro-ethyl]-1-imino-N-methyl-1-oxo-thiane-4-carboxamide] | 317 nM | 78 nM
19 | CN1C[C@H](C(=O)N(C)[C@@H](c2ccc(N3CCCc4c3cnc3cc(Cl)nn43)cc2)C(F)(F)F)CCC1=O (relative stereo) [CPD0073197, (3rel-R)-N-[(1S)-1-(4-{4-chloro-2,3,7,10-tetraazatricyclo[7.4.0.0^2,6]trideca-1(9),3,5,7-tetraen-10-yl}phenyl)-2,2,2-trifluoroethyl]-N,1-dimethyl-6-oxopiperidine-3-carboxamide] | 207 nM | 103 nM
20 | CN(C(=O)[C@H]1CC[S@@+]([O-])CC1)[C@@H](c1ccc(N2CCC(C)(C)c3c2cnc2cc(Cl)nn32)cc1)C(F)(F)F (relative stereo) [CPD0072776, (1rel-s,4rel-s)-N-[(1S)-1-(4-{4-chloro-13,13-dimethyl-2,3,7,10-tetraazatricyclo[7.4.0.0^2,6]trideca-1(9),3,5,7-tetraen-10-yl}phenyl)-2,2,2-trifluoroethyl]-N-methyl-1-oxo-1λ^4-thiane-4-carboxamide] | 35 nM | 73 nM
21 | CN(C(=O)[C@@H]1CCC(=O)N1C)[C@@H](c1ccc(N2CCCc3c2cnc2cc(Cl)nn32)cc1)C(F)(F)F [CPD0073919, (2S)-N-[(1S)-1-(4-{4-chloro-2,3,7,10-tetraazatricyclo[7.4.0.0^2,6]trideca-1(9),3,5,7-tetraen-10-yl}phenyl)-2,2,2-trifluoroethyl]-N,1-dimethyl-5-oxopyrrolidine-2-carboxamide] | 112 nM | 61 nM
22 | CN(C(=O)[C@H]1CCC(=O)NC1)[C@@H](c1ccc(N2CCCc3c2cnc2cc(Cl)nn32)cc1)C(F)(F)F (relative stereo) [CPD0073569, (3rel-S)-N-[(1S)-1-(4-{4-chloro-2,3,7,10-tetraazatricyclo[7.4.0.0^2,6]trideca-1(9),3,5,7-tetraen-10-yl}phenyl)-2,2,2-trifluoroethyl]-N-methyl-6-oxopiperidine-3-carboxamide] | 140 nM | 47 nM
